Source: US7985755B2, “2,4-diaminoquinazolines for spinal muscular atrophy” (Families of Spinal Muscular Atrophy, priority 2006, dated 2011)
Counter-ions that a name gives are not always drawn. Like-named read-outs stand apart in the source and are kept apart here.

Experiments:
[1] = test system: SMN2 promoter; assay: SMN2 promoter assay in NSC-34 cells (β-lactamase reporter); assay type: cell-based, mouse
From the text: All compounds were screened using an in vitro based SMN2 promoter assay. We used NSC-34 cells, a hybrid cell line between mouse spinal cord cells and mouse neuroblastoma cells. NSC-34 cells harbor an expression plasmid containing a 3.4 kb promoter fragment of the SMN2 gene driving β-lactamase expression.
[…] […] CCF2-AM diffuses across the plasma membrane and is converted into an active β-lactamase substrate by cytoplasmic esterase. […] The fold induction is proportional to the extent of β-lactamase produced and in turn proportional to SMN2 promoter activation for a given compound relative to vehicle (DMSO) control. […] These values are used to rank activities of the compounds and derive structure activity relationship.

[2] = target: T1, Human, recombinant dihydrofolate reductase (Homo sapiens, UniProt P00374); assay: Human DHFR assay; assay type: biochemical
T1 construct: purchased Sigma D6566
T1 sequence (P00374 1-187): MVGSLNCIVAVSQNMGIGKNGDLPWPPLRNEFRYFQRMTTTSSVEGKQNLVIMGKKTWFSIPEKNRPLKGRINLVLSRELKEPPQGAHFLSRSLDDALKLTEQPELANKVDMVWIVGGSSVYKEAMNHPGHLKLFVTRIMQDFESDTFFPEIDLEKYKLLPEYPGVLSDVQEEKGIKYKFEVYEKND
Protocol: The assay is an adaptation for 96-well plate format from Appleman et al. (Appleman, J R; Howell, E E; Kraut, J; Kuhl, M and Blakley, R L (1988) J. Biol. Chem. 263, 9187-9198). Human, recombinant dihydrofolate reductase (Sigma, D6566) was incubated along with test compounds ([…]) and NADPH (Sigma, N-7505) in 96-well plates. After a 10 min. pre-incubation at room temperature, dihydrofolic acid (Sigma, D7006) was added and the kinetic traces at 340 nm measured on a Spectra Max 190 plate reader at room temperature. Reaction rates were determined from the slopes of the linear portions of the progress curves. The final assay conditions were 0.014 units DHFR, 300 μM NADPH, 30 μM Dihydrofolic acid, 50 mM TRIS, pH 7.6, 100 mM NaCl and 1.25% DMSO. Each compound was measured in duplicates on every assay plate. Each assay plate contained 12 positive controls (DMSO only) and 12 negative controls (no dihydrofolic acid). All data was percent normalized with respect to controls and presented as percent inhibition. Inhibition data was analyzed using Prism and fit to a standard 4-parameter logistic equation to calculate IC50 values.

[3] = Mus musculus, Table 3, SMN2 promoter driving β-lactamase, read-out: Promoter Assay EC50
[4] = Mus musculus, Table 1, SMN2 promoter driving β-lactamase, 12 point dose curve, read-out: Promoter Assay EC50
[5] = Table 1, SMN2 promoter driving β-lactamase, 12 point dose curve, read-out: Promoter Assay EC50
[6] = Table 3, SMN2 promoter driving β-lactamase, read-out: Promoter Assay EC50
[7] = Mus musculus, Table 4, SMN2 promoter driving β-lactamase, read-out: Promoter Assay EC50 for 2391.003C(P)
[8] = Mus musculus, Table 6, SMN2 promoter driving β-lactamase, read-out: Promoter Assay EC50

EC50 [1, 5] | Structure (SMILES) | other results
 | Nc1nc(N)c2c(OCC3CCN(c4ccccc4F)CC3)cccc2n1 [Examplc-155, 5-[1-(2-Fluorophenyl)piperidin-4-ylmethoxy]quinazoline-2,4-diamine] | EC50 [1, 3]: < 1 µM; IC50 ([2]; Table 3, read-out: hDHFR IC50): < 20 µM
 | CC(C)(C)OC(=O)N1CCN(CCOc2cccc3nc(N)nc(N)c23)CC1 [Examplc-205, 4-[2-(2,4-Diamino-quinazolin-5-yloxy)-ethyl]-piperazine-1-carboxylic Acid tert-butyl Ester] | EC50 ([1]; Mus musculus, Table 5, SMN2 promoter driving β-lactamase, read-out: Promoter Assay EC50): < 1 µM; IC50 ([2]; Table 5, read-out: hDHFR IC50): < 20 µM
 | Nc1nc(N)c2c(OCC3CCN(Cc4ccccc4F)CC3)cccc2n1 [Example-001] | IC50 ([2]; Table 1, read-out: hDHFR IC50): 20 to 100 µM
 | Nc1nc(N)c2c(OCC3CCN(Cc4cccc(Cl)c4)CC3)cccc2n1 [Example-002, 5-[1-(3-chlorobenzyl)-piperidin-4-ylmethoxy]-quinazoline-2,4-diamine] | EC50 [1, 4]: < 1 µM; IC50 ([2]; Table 1, read-out: hDHFR IC50): < 20 µM
 | Nc1nc(N)c2c(OCC3CCN(Cc4ccc(Cl)c(Cl)c4)CC3)cccc2n1 [Example-038] | IC50 ([2]; Table 1, read-out: hDHFR IC50): < 20 µM
< 1 µM | CC(=O)Nc1nc(CN2CCC(COc3cccc4nc(N)nc(N)c34)CC2)cs1 [Example-094] | 
< 1 µM | Nc1nc(N)c2c(OCC3CCN(CC4COc5ccccc5O4)CC3)cccc2n1 (stereo not shown) [Example-096] | 
< 1 µM | Nc1nc(N)c2c(OCC3CCN(Cc4ccc(OC(F)(F)F)cc4)CC3)cccc2n1 [Example-102] | 
< 1 µM | Nc1nc(N)c2c(OCC3CCN(Cc4cccc(OC(F)(F)F)c4)CC3)cccc2n1 [Example-103] | 
< 1 µM | Nc1nc(N)c2c(OCC3CCN(Cc4ccc(Cl)cc4Cl)CC3)cccc2n1 [Example-104] | 
< 1 µM | Nc1nc(N)c2c(OCC3CCN(C(=O)c4ccc5c(c4)OCO5)CC3)cccc2n1 [Example-105] | 
< 1 µM | Nc1nc(N)c2c(OCC3CCN(C(=O)c4c(F)cccc4F)CC3)cccc2n1 [Example-107] | 
< 1 µM | Nc1nc(N)c2c(OCC3CCN(C(=O)c4c(Cl)cccc4Cl)CC3)cccc2n1 [Example-108] | 
< 1 µM | Nc1nc(N)c2c(OCC3CCN(C(=O)c4ccc(Cl)c(Cl)c4)CC3)cccc2n1 [Example-109] | 
< 1 µM | Nc1nc(N)c2c(OCC3CCN(C(=O)c4cccc(C(F)(F)F)c4F)CC3)cccc2n1 [Example-110] | 
< 1 µM | Nc1nc(N)c2c(OCC3CCN(S(=O)(=O)c4ccc(F)cc4)CC3)cccc2n1 [Example-111] | 
< 1 µM | COc1cccc(CN2CCC(COc3cccc4nc(N)nc(N)c34)CC2)c1 [Example-114] | 
< 1 µM | Nc1nc(N)c2c(OCC3CCN(Cc4cc(Cl)cc(Cl)c4)CC3)cccc2n1 [Example-116] | 
< 1 µM | Nc1nc(N)c2c(OCC3CCN(Cc4ccccn4)CC3)cccc2n1 [Example-118] | 
< 1 µM | Nc1nc(N)c2c(OCC3CCN(Cc4ccncc4)CC3)cccc2n1 [Example-119] | 
< 1 µM | COc1ccc(CN2CCC(COc3cccc4nc(N)nc(N)c34)CC2)cc1F [Example-122] | 
< 1 µM | Nc1nc(N)c2c(OCC3CCN(Cc4ccc(C(F)(F)F)cc4)CC3)cccc2n1 [Example-123] | 
< 1 µM | COc1ccc(CN2CCC(COc3cccc4nc(N)nc(N)c34)CC2)cc1 [Example-124] | 
< 1 µM | CC(C)(C)c1ccc(CN2CCC(COc3cccc4nc(N)nc(N)c34)CC2)cc1 [Example-129] | 
< 1 µM | Nc1nc(N)c2c(OCC3CCN(Cc4cccc(C(F)(F)F)c4)CC3)cccc2n1 [Example-130] | 
< 1 µM | Nc1nc(N)c2c(OCC3CCN(Cc4ccccc4C(F)(F)F)CC3)cccc2n1 [Example-131] | 

EC50 [1, 5] | Structure (SMILES) | other results
< 1 µM | Nc1nc(N)c2c(OCC3CCN(Cc4cccc(F)c4)CC3)cccc2n1 [Example-132] | 
< 1 µM | COc1cc(CN2CCC(COc3cccc4nc(N)nc(N)c34)CC2)cc(OC)c1 [Example-133] | 
< 1 µM | Nc1nc(N)c2c(OCC3CCN(Cc4cccs4)CC3)cccc2n1 [Example-135] | 
< 1 µM | Nc1nc(N)c2c(OCC3CCN(Cc4cc(F)cc(F)c4)CC3)cccc2n1 [Example-137] | 
< 1 µM | Nc1nc(N)c2c(OCC3CCN(Cc4ccsc4)CC3)cccc2n1 [Example-145] | 
< 1 µM | Cc1ccc(C)c(CN2CCC(COc3cccc4nc(N)nc(N)c34)CC2)c1 [Example-146] | 
< 1 µM | Nc1nc(N)c2c(OCC3CCN(Cc4cc(F)c(F)c(F)c4)CC3)cccc2n1 [Example-148] | 
< 1 µM | Nc1nc(N)c2c(OCC3CCN(Cc4ccc(F)cc4)CC3)cccc2n1 [Example-149] | 
1 to 5 µM | Cn1ccnc1CN1CCC(COc2cccc3nc(N)nc(N)c23)CC1 [Example-152] | 
 | COC(=O)c1cccc(CN2CCC(COc3cccc4nc(N)nc(N)c34)CC2)c1 [Example-156] | EC50 [1, 6]: < 1 µM
 | COC(=O)c1ccc(CN2CCC(COc3cccc4nc(N)nc(N)c34)CC2)cc1 [Example-157] | EC50 [1, 6]: < 1 µM
 | Nc1nc(N)c2c(OCC3CCN(c4ccccc4Cl)CC3)cccc2n1 [Example-163, 5-[1-(2-Chlorophenyl)piperidin-4-ylmethoxy]quinazoline-2,4-diamine] | EC50 [1, 3]: < 1 µM
 | Nc1nc(N)c2c(N3CCN(Cc4ccccc4)CC3)cccc2n1 [Example-169, 5-(4-Benzyl-piperazin-1-yl)-quinazoline-2,4-diamine] | EC50 [1, 7]: 1 to 5 µM
 | Nc1nc(N)c2c(N3CCN(Cc4ccc(Cl)cc4)CC3)cccc2n1 [Example-173, 5-[4-(4-Chloro-benzyl)-piperazin-1-yl]-quinazoline-2,4-diamine] | EC50 [1, 7]: < 1 µM
 | Nc1nc(N)c2c(N3CCN(Cc4ccccc4F)CC3)cccc2n1 [Example-176, 5-[4-(2-Fluoro-benzyl)-piperazin-1-yl]-quinazoline-2,4-diamine] | EC50 [1, 7]: 1 to 5 µM
 | Nc1nc(N)c2c(N3CCN(Cc4ccc(F)cc4F)CC3)cccc2n1 [Example-177, 5-[4-(2,4-Difluoro-benzyl)-piperazin-1-yl]-quinazoline-2,4-diamine] | EC50 [1, 7]: < 1 µM
 | Nc1nc(N)c2c(N3CCN(Cc4ccc5c(c4)OCO5)CC3)cccc2n1 [Example-182, 5-(4-Benzo[1,3]dioxol-5-ylmethyl-piperazin-1-yl)-quinazoline-2,4-diamine] | EC50 [1, 7]: < 1 µM
 | Cc1cccc(CN2CCN(c3cccc4nc(N)nc(N)c34)CC2)c1F [Example-183, 5-[4-(2-Fluoro-3-methyl-benzyl)-piperazin-1-yl]-quinazoline-2,4-diamine] | EC50 [1, 7]: < 1 µM
 | Nc1nc(N)c2c(N3CCN(Cc4ccc5ccccc5c4)CC3)cccc2n1 [Example-204, 5-(4-Naphthalen-2-ylmethyl-piperazin-1-yl)-quinazoline-2,4-diamine hydrochloride] | EC50 [1, 7]: 1 to 5 µM
 | Nc1nc(N)c2c(N3CCNCC3)cccc2n1 [Example-220, 5-piperazin-1-ylquinazoline-2,4-diamine] | EC50 [1, 7]: < 1 µM
 | Nc1nc(N)c2c(OCC3CCN(Cc4cccc(C(=O)O)c4)CC3)cccc2n1 [Example-222, 3-[4-(2,4-Diamino-quinazolin-5-yloxymethyl)-piperidin-1-ylmethyl]-benzoic acid] | EC50 [1, 4]: 1 to 5 µM
 | Nc1nc(N)c2c(OCC3CCN(Cc4ccc(C(=O)O)cc4)CC3)cccc2n1 [Example-223, 4-[4-(2,4-Diamino-quinazolin-5-yloxymethyl)-piperidin-1-ylmethyl]-benzoic Acid] | EC50 [1, 4]: 1 to 5 µM
 | CC(C)(Oc1cccc2nc(N)nc(N)c12)C1CCN(Cc2c(Cl)cccc2Cl)CC1 [Example-224, 5-{1-[1-(2,6-Dichloro-benzyl)-piperidin-4-yl]-1-methyl-ethoxy}-quinazoline-2,4-diamine] | EC50 [1, 8]: < 1 µM
 | CC(C)(Oc1cccc2nc(N)nc(N)c12)C1CCN(Cc2c(F)cccc2Cl)CC1 [Example-225, 5-{1-[1-(2-Chloro-6-fluoro-benzyl)-piperidin-4-yl]-1-methyl-ethoxy}-quinazoline-2,4-diamine] | EC50 [1, 8]: < 1 µM
 | CC1CC(COc2cccc3nc(N)nc(N)c23)CC(C)N1Cc1ccccc1F (stereo not shown) [Example-226, 5-[1-(2-Fluoro-benzyl)-2,6-dimethyl-piperidin-4-ylmethoxy]-quinazoline-2,4-diamine] | EC50 [1, 8]: < 1 µM
 | CC1CC(COc2cccc3nc(N)nc(N)c23)CC(C)N1Cc1c(F)cccc1Cl (stereo not shown) [Example-227, 5-[1-(2-Chloro-6-fluoro-benzyl)-2,6-dimethyl-piperidin-4-ylmethoxy]-quinazoline-2,4-diamine] | EC50 [1, 8]: < 1 µM
